Counter-ions that a name gives are not always drawn. Like-named read-outs stand apart in the source and are kept apart here.
Molecular target: T1, human cannabinoid CB2 receptor (Homo sapiens, UniProt P34972)
T1 construct: expressed in transfected cells; host or cells: Saccharomyces cerevisiae strain MMY23 (cassette integrated at the ura3 locus; chimeric Gpa1/Gαi3)
Experiment: Cannabinoid CB2 receptor agonist activity, yeast (Saccharomyces cerevisiae) cells expressing the receptor, FDGlu fluorescence
Type: cell-based
Conditions: for Emax: read-out: efficacy (Emax relative to HU210) at the cloned human cannabinoid CB2 receptor
Protocol: The cannabinoid CB2 receptor agonist activity of the compounds of formula (I) was determined in accordance with the following experimental method.
Yeast (Saccharomyces cerevisiae) cells expressing the human cannabinoid CB2 receptor were generated by integration of an expression cassette into the ura3 chromosomal locus of yeast strain MMY23. This cassette consisted of DNA sequence encoding the human CB2 receptor flanked by the yeast GPD promoter to the 5′ end of CB2 and a yeast transcriptional terminator sequence to the 3′ end of CB2. MMY23 expresses a yeast/mammalian chimeric G-protein alpha subunit in which the C-terminal 5 amino acids of Gpa1 are replaced with the C-terminal 5 amino acids of human Gαi3 (as described in Brown et al. (2000), Yeast 16:11-22). Cells were grown at 30° C. in liquid Synthetic Complete (SC) yeast media (Guthrie and Fink (1991), Methods in Enzymology, Vol. 194) lacking uracil, tryptophan, adenine and leucine to late logarithmic phase (approximately 6 OD600/ml).
Agonists were prepared as 10 mM stocks in DMSO. EC50 values (the concentration required to produce 50% maximal response) were estimated using dilutions of between 3- and 5-fold (BiomekFX, Beckman) into DMSO. Agonist solutions in DMSO (1% final assay volume) were transferred into black, clear bottom, microtitre plates from NUNC (96- or 384-well). Cells were suspended at a density of 0.2 OD600/ml in SC media lacking histidine, uracil, tryptophan, adenine and leucine and supplemented with 10 mM 3-aminotriazole, 0.1M sodium phosphate pH 7.0, and […] fluorescein di-β-D-glucopyranoside (FDGlu). This mixture (50 ul per well for 384-well plates, 200 ul per well for 96-well plates) was added to agonist in the assay plates (Multidrop 384, Labsystems). After incubation at 30° C. for 24 hours, fluorescence resulting from degradation of FDGlu to fluorescein due to exoglucanase, an endogenous yeast enzyme produced during agonist-stimulated cell growth, was determined using a Spectrofluor microtitre plate reader (Tecan; excitation wavelength: 485 nm; emission wavelength: 535 nm). Fluorescence was plotted against compound concentration and iteratively curve fitted using a four parameter fit to generate a concentration effect value. Efficacy (Emax) was calculated from the equation
Emax=Max[compound X]−Min[compound X]/Max[HU210]−Min[HU210]×100%
where Max[compound X] and Min[compound X] are the fitted maximum and minimum respectively from the concentration effect curve for compound X, and Max[HU210] and Min[HU210] are the fitted maximum and minimum respectively from the concentration effect curve for (6aR,10aR)-3-1,1′-Dimethylheptyl)-6a,7,10,10a-tetrahydro-1-hydroxy-6,6-dimethyl-6H-dibenzo[b,d]pyran-9-methanol (HU210; available from Tocris). Equieffective molar ratio (EMR) values were calculated from the equation
Where EC50[compound X] is the EC50 of compound X and EC50[HU210] is the EC50 of HU210.

[1] = yeast agonist assay, read-out: EC50 at the cloned human cannabinoid CB2 receptor

T1 sequence (P34972 whole entry): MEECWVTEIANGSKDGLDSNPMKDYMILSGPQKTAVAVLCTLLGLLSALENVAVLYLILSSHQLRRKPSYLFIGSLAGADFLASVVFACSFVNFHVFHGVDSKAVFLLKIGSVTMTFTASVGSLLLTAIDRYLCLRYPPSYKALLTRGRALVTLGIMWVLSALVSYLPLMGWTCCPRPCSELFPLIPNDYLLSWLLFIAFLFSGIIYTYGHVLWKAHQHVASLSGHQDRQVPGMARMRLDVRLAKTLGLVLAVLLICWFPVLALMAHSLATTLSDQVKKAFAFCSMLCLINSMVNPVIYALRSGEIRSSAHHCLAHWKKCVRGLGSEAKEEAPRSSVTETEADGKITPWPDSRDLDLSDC

EC50 [1] [µM]	Emax (yeast agonist assay) [%]	SMILES	Emax [%]	EC50 [µM]
< 0.3	> 50	Clc1cccc(Nc2ncc(CNC3CCC3)c(C3CC3)n2)c1 [Example 1, (3-Chloro-phenyl)-(5-cyclobutylaminomethyl-4-cyclopropyl-pyrimidin-2-yl)-amine]		
< 0.3	> 50	Clc1cccc(Nc2ncc(CNCC3CC3)c(C3CC3)n2)c1 [Example 3, (3-Chloro-phenyl)-{4-cyclopropyl-5-[(cyclopropylmethyl-amino)-methyl]-pyrimidin-2-yl}-amineacetate]		
< 0.3	> 50	CC(C)CNCc1cnc(Nc2cccc(Cl)c2)nc1C1CC1 [Example 5, (3-Chloro-phenyl)-[4-cyclopropyl-5-(isobutylamino-methyl)-pyrimidin-2-yl]-amine]		
< 0.3	> 50	CC(C)c1nc(Nc2cccc(Cl)c2)ncc1CN1CCOCC1 [Example 6, (3-Chloro-phenyl)-(4-isopropyl-5-morpholin-4-ylmethyl-pyrimidin-2-yl)-amine]		
< 0.3	> 50	CC(C)c1nc(Nc2cccc(Cl)c2)ncc1CNCC1CC1 [Example 7, (3-Chloro-phenyl)-{5-[(cyclopropylmethyl-amino)-methyl]-4-isopropyl-pyrimidin-2-yl}-amine hydrochloride]		
< 0.3	> 50	CC(C)c1nc(Nc2cccc(Cl)c2)ncc1CNCC1CCCC1 [Example 8, (3-Chloro-phenyl)-{5-[(cyclopentylmethyl-amino)-methyl]-4-isopropyl-pyrimidin-2-yl}-amine hydrochloride]		
< 0.3	> 50	COCCNCc1cnc(Nc2cccc(Cl)c2)nc1C(C)C [Example 9, (3-Chloro-phenyl)-{4-isopropyl-5-[(2-methoxy-ethylamino)-methyl]-pyrimidin-2-yl}-amineformate]		
< 0.3	> 50	FC(F)(F)c1nc(Nc2cccc(Cl)c2)ncc1CNCC1CCCC1 [Example 10, (3-Chlorophenyl){5-[(cyclopentylmethylamino)-methyl]-4 trifluoromethyl-pyrimidin-2-yl}-amine, formate]		
< 0.3	> 50	CC(C)CNCc1cnc(Nc2cccc(Cl)c2)nc1C(F)(F)F [Example 11, (3-Chlorophenyl){5-[(isobutylamino)-methyl]-4-trifluoromethyl-pyrimidin-2yl}-amine, formate]		
		Fc1ccc(Nc2ncc(CNCC3CC3)c(C(F)(F)F)n2)cc1Cl [Example 13, (3-Chloro-4-fluoro-phenyl)-{5-[(cyclopropylmethyl-amino)-methyl]-4-trifluoromethyl-pyrimidin-2-yl}-amine hydrochloride]	> 50	< 0.3
		FC(F)(F)c1nc(Nc2cccc(Cl)c2)ncc1CN1CCOCC1 [Example 14, (3-Chlorophenyl)-(5-morpholin-4-ylmethyl-4-trifluoromethyl-pyrimidin-2-yl)-amine]	> 50	< 0.3
< 0.3	> 50	FC(F)(F)c1nc(Nc2cccc(Cl)c2)ncc1CNCC1CCOCC1 [Example 15, (3-Chlorophenyl)-(5-{[(tetrahydro-pyran-4-ylmethyl)-amino]-methyl}-4-trifluoromethyl-pyrimidin-2-yl)-amine,formate]		
< 0.3	> 50	FC(F)(F)c1nc(Nc2cccc(Cl)c2)ncc1CNC1CCOCC1 [Example 16, (3-Chlorophenyl)-{5-[(tetrahydro-pyran-4-ylamino)-methyl]-4-trifluoromethyl-pyrimidin-2-yl}-amine, formate]		
< 0.3	> 50	COCCNCc1cnc(Nc2cccc(Cl)c2)nc1C(F)(F)F [Example 17, (3-Chlorophenyl)-{5-[(2-methoxy-ethylamino)-methyl]-4-trifluoromethyl-pyrimidin-2-yl}-amine, formate]		

SMILES	EC50 [1] [µM]	Emax (yeast agonist assay) [%]	Emax [%]	EC50 [µM]
FC(F)(F)c1nc(Nc2cccc(Cl)c2)ncc1CNCC1CCCCC1 [Example 12, (3-Chlorophenyl)-{[5-(cyclohexylmethylamino)-methyl]-4-trifluoromethyl-pyrimidin-2yl}-amine]	0.3 to 1		> 50	
